Measurements from US20070049564A1 (Wyeth, priority 2005, published 2007).
Values after ≈ are worked out from the molar mass of the structure shown. Like-named read-outs stand apart in the source and are kept apart here.

Legend:
[1] = system: Staph. aureus Smith; assay: In vivo activity (oral, iv; ED50) against Staph. aureus Smith in mice
[2] = system: E. coli; assay: Range of MIC for E. coli strains; conditions: Escherichia coli
[3] = system: E. coli GC 2232; assay: MIC, broth microdilution; conditions: Escherichia coli
[4] = system: E. coli GC 2234; assay: MIC, broth microdilution; conditions: Escherichia coli
[5] = system: E. faecalis GC 4555; assay: MIC, broth microdilution; conditions: Enterococcus faecalis
[6] = system: E. coli GC 2236; assay: MIC, broth microdilution; conditions: Escherichia coli
[7] = system: E. coli GC 4559; assay: MIC, broth microdilution; conditions: Escherichia coli
[8] = system: E. faecalis GC 2242; assay: MIC, broth microdilution; conditions: Enterococcus faecalis
[9] = system: S. aureus GC 4536; assay: MIC, broth microdilution; conditions: Staphylococcus aureus
[10] = system: S. agalactiae GC 4564; assay: MIC, broth microdilution; conditions: Streptococcus agalactiae
[11] = system: S. pyogenes GC 4563; assay: MIC, broth microdilution; conditions: Streptococcus pyogenes
[12] = system: E. faecium GC 4556; assay: MIC, broth microdilution; conditions: Enterococcus faecium
[13] = system: S. aureus GC 6466; assay: MIC, broth microdilution; conditions: Staphylococcus aureus
[14] = system: Staph.; assay: Range of MIC for Staph. strains, including MRSA; conditions: Staphylococcus aureus
[15] = system: E. coli GC 2231; assay: MIC, broth microdilution; conditions: Escherichia coli
[16] = system: S. typhimurium GC 2172; assay: MIC, broth microdilution; conditions: Salmonella enterica, TYPHIMURIUM
[17] = system: S. pneumoniae* GC 4465; assay: MIC, broth microdilution; conditions: Streptococcus pneumoniae
[18] = system: E. coli GC 2235; assay: MIC, broth microdilution; conditions: Escherichia coli
[19] = system: S. aureus GC 2216; assay: MIC, broth microdilution; conditions: Staphylococcus aureus
[20] = system: S. pneumoniae+ GC 4465; assay: MIC, broth microdilution; conditions: Streptococcus pneumoniae
[21] = read-out: MINIMAL INHIBITORY CONCENTRATION MIC, Human Serum
[22] = read-out: MINIMAL INHIBITORY CONCENTRATION MIC, Mouse Serum
[23] = read-out: MINIMAL INHIBITORY CONCENTRATION MIC, Water

MIC ([2]; 20 h, read-out: Range of MIC, E. coli (Mouse Serum)): 0.25 to 1 µg/mL (≈ 0.336 to 1.34 µM) | MIC ([2]; read-out: Minimum inhibitory concentration (MIC), E. coli (Human Serum)): 8 to 16 µg/mL (≈ 10.8 to 21.5 µM) | MIC ([2]; read-out: Minimum inhibitory concentration (MIC), E. coli (water)): 16 to 64 µg/mL (≈ 21.5 to 86 µM) | MIC ([2]; read-out: Range of MIC, E. coli (Water)): 16 to 64 µg/mL (≈ 21.5 to 86 µM) | MIC ([3]; GC2232, read-out: MINIMAL INHIBITORY CONCENTRATION MIC, Human Serum): 8 µg/mL (≈ 10.8 µM) | MIC ([3]; GC2232, read-out: MINIMAL INHIBITORY CONCENTRATION MIC, Mouse Serum): 0.5 µg/mL (≈ 0.672 µM) | MIC ([3]; GC2232, read-out: MINIMAL INHIBITORY CONCENTRATION MIC, Water): 32 µg/mL (≈ 43 µM) | MIC ([4]; GC2234, read-out: MINIMAL INHIBITORY CONCENTRATION MIC, Human Serum): 8 µg/mL (≈ 10.8 µM) | MIC ([4]; GC2234, read-out: MINIMAL INHIBITORY CONCENTRATION MIC, Mouse Serum): 0.5 µg/mL (≈ 0.672 µM) | MIC ([4]; GC2234, read-out: MINIMAL INHIBITORY CONCENTRATION MIC, Water): 16 µg/mL (≈ 21.5 µM) | MIC ([5]; GC4555, read-out: MINIMAL INHIBITORY CONCENTRATION MIC, Human Serum): 2 µg/mL (≈ 2.69 µM) | MIC ([5]; GC4555, read-out: MINIMAL INHIBITORY CONCENTRATION MIC, Mouse Serum): 0.5 µg/mL (≈ 0.672 µM) | MIC ([5]; GC4555, read-out: MINIMAL INHIBITORY CONCENTRATION MIC, Water): 2 µg/mL (≈ 2.69 µM) | MIC ([6]; GC2236, read-out: MINIMAL INHIBITORY CONCENTRATION MIC, Human Serum): 16 µg/mL (≈ 21.5 µM) | MIC ([6]; GC2236, read-out: MINIMAL INHIBITORY CONCENTRATION MIC, Mouse Serum): 1 µg/mL (≈ 1.34 µM) | MIC ([6]; GC2236, read-out: MINIMAL INHIBITORY CONCENTRATION MIC, Water): 32 µg/mL (≈ 43 µM) | MIC ([7]; GC4559, read-out: MINIMAL INHIBITORY CONCENTRATION MIC, Human Serum): 16 µg/mL (≈ 21.5 µM) | MIC ([7]; GC4559, read-out: MINIMAL INHIBITORY CONCENTRATION MIC, Mouse Serum): 1 µg/mL (≈ 1.34 µM) | MIC ([7]; GC4559, read-out: MINIMAL INHIBITORY CONCENTRATION MIC, Water): 32 µg/mL (≈ 43 µM) | MIC ([8]; GC2242, read-out: MINIMAL INHIBITORY CONCENTRATION MIC, Human Serum): 2 µg/mL (≈ 2.69 µM) | MIC ([8]; GC2242, read-out: MINIMAL INHIBITORY CONCENTRATION MIC, Mouse Serum): 0.5 µg/mL (≈ 0.672 µM) | MIC ([8]; GC2242, read-out: MINIMAL INHIBITORY CONCENTRATION MIC, Water): 2 µg/mL (≈ 2.69 µM) | MIC ([9]; GC4536, read-out: MINIMAL INHIBITORY CONCENTRATION MIC, Human Serum): 0.5 µg/mL (≈ 0.672 µM) | MIC ([9]; GC4536, read-out: MINIMAL INHIBITORY CONCENTRATION MIC, Mouse Serum): 0.25 µg/mL (≈ 0.336 µM) | MIC ([9]; GC4536, read-out: MINIMAL INHIBITORY CONCENTRATION MIC, Water): 1 µg/mL (≈ 1.34 µM) | MIC ([10]; GC4564, read-out: MINIMAL INHIBITORY CONCENTRATION MIC, Human Serum): 0.5 µg/mL (≈ 0.672 µM) | MIC ([10]; GC4564, read-out: MINIMAL INHIBITORY CONCENTRATION MIC, Mouse Serum): < 0.06 µg/mL | MIC ([10]; GC4564, read-out: MINIMAL INHIBITORY CONCENTRATION MIC, Water): 0.5 µg/mL (≈ 0.672 µM) | MIC ([11]; GC4563, read-out: MINIMAL INHIBITORY CONCENTRATION MIC, Human Serum): 0.25 µg/mL (≈ 0.336 µM) | MIC ([11]; GC4563, read-out: MINIMAL INHIBITORY CONCENTRATION MIC, Mouse Serum): 0.12 µg/mL (≈ 0.161 µM) | MIC ([11]; GC4563, read-out: MINIMAL INHIBITORY CONCENTRATION MIC, Water): 0.25 µg/mL (≈ 0.336 µM) | MIC ([12]; GC4556, read-out: MINIMAL INHIBITORY CONCENTRATION MIC, Human Serum): 2 µg/mL (≈ 2.69 µM) | MIC ([12]; GC4556, read-out: MINIMAL INHIBITORY CONCENTRATION MIC, Mouse Serum): 0.5 µg/mL (≈ 0.672 µM) | MIC ([12]; GC4556, read-out: MINIMAL INHIBITORY CONCENTRATION MIC, Water): 2 µg/mL (≈ 2.69 µM) | MIC ([13]; GC6466, read-out: MINIMAL INHIBITORY CONCENTRATION MIC, Human Serum): 0.5 µg/mL (≈ 0.672 µM) | MIC ([13]; GC6466, read-out: MINIMAL INHIBITORY CONCENTRATION MIC, Mouse Serum): 0.5 µg/mL (≈ 0.672 µM) | MIC ([13]; GC6466, read-out: MINIMAL INHIBITORY CONCENTRATION MIC, Water): 0.5 µg/mL (≈ 0.672 µM) | MIC ([14]; MRSA, read-out: Range of MIC, Staph (Mouse Serum)): 0.25 to 1 µg/mL (≈ 0.336 to 1.34 µM) | MIC ([14]; MRSA, read-out: Range of MIC, Staph (Water)): 0.5 to 2 µg/mL (≈ 0.672 to 2.69 µM) | MIC ([14]; read-out: Minimum inhibitory concentration (MIC), Staph (Human Serum)): 0.5 to 2 µg/mL (≈ 0.672 to 2.69 µM) | MIC ([14]; read-out: Minimum inhibitory concentration (MIC), Staph (Water)): 0.5 to 2 µg/mL (≈ 0.672 to 2.69 µM) | MIC ([15]; GC2231, read-out: MINIMAL INHIBITORY CONCENTRATION MIC, Human Serum): 16 µg/mL (≈ 21.5 µM) | MIC ([15]; GC2231, read-out: MINIMAL INHIBITORY CONCENTRATION MIC, Mouse Serum): 1 µg/mL (≈ 1.34 µM) | MIC ([15]; GC2231, read-out: MINIMAL INHIBITORY CONCENTRATION MIC, Water): 64 µg/mL (≈ 86 µM) | MIC [16, 21]: 64 µg/mL (≈ 86 µM) | MIC [16, 22]: 4 µg/mL (≈ 5.38 µM) | MIC [16, 23]: > 64 µg/mL | MIC [17, 21]: 0.25 µg/mL (≈ 0.336 µM) | MIC [17, 22]: 0.12 µg/mL (≈ 0.161 µM) | MIC [17, 23]: 0.12 µg/mL (≈ 0.161 µM) | MIC ([18]; GC2235, read-out: MINIMAL INHIBITORY CONCENTRATION MIC, Human Serum): 8 µg/mL (≈ 10.8 µM) | MIC ([18]; GC2235, read-out: MINIMAL INHIBITORY CONCENTRATION MIC, Mouse Serum): 0.5 µg/mL (≈ 0.672 µM) | MIC ([18]; GC2235, read-out: MINIMAL INHIBITORY CONCENTRATION MIC, Water): 32 µg/mL (≈ 43 µM) | MIC ([19]; GC2216, read-out: MINIMAL INHIBITORY CONCENTRATION MIC, Human Serum): 0.5 µg/mL (≈ 0.672 µM) | MIC ([19]; GC2216, read-out: MINIMAL INHIBITORY CONCENTRATION MIC, Mouse Serum): 0.5 µg/mL (≈ 0.672 µM) | MIC ([19]; GC2216, read-out: MINIMAL INHIBITORY CONCENTRATION MIC, Water): 1 µg/mL (≈ 1.34 µM) | MIC [20, 21]: 1 µg/mL (≈ 1.34 µM) | MIC [20, 22]: 2 µg/mL (≈ 2.69 µM) | MIC [20, 23]: 2 µg/mL (≈ 2.69 µM)
SMILES: CC(C)CC(=O)OCOC(=O)N(CC(=O)Nc1cc(N(C)C)c2c(c1O)C(=O)C1=C(O)[C@]3(O)C(=O)C(C(N)=O)=C(O)[C@@H](N(C)C)[C@@H]3C[C@@H]1C2)C(C)(C)C [Example 53, ({[(2-{[(5aR,6aS,7S,10aS)-9-(aminocarbonyl)-4,7-bis(dimethylamino)-1,8,10a,11-tetrahydroxy-10,12-dioxo-5,5a,6,6a,7,10,10a,12-octahydrotetracen-2-yl]amino}-2-oxoethyl)(tert-butyl)amino]carbonyl}oxy)methyl 3-methylbutanoate]
ED50 ([1]; Staphylococcus aureus, in Mus musculus, iv, read-out: ED50 SIV (Staph aureus Smith)): 0.73 mg/kg | ED50 ([1]; Staphylococcus aureus, in Mus musculus, po, read-out: ED50 SOD (Staph aureus Smith)): 5.08 mg/kg | ED50 ([1]; Staphylococcus aureus, in Mus musculus, po, read-out: ED50 Staph Smith SOD): 5.08 mg/kg | ED50 ([1]; iv, read-out: ED50 Staph Smith SIV): 0.73 mg/kg
